Measured values as given in patent publication US11066668B2, “Compositions and methods for modulation of IKBKAP splicing” (Ionis Pharmaceuticals, Inc., priority 2012, dated 2021).
Oligonucleotides are written 5' to 3', each unit as a sugar letter and its base; * is a phosphorothioate linkage, no mark a phosphodiester; rarer units and linkages stand in square brackets, end groups in braces. Plain capitals give the bases only. e = 2'-O-(2-methoxyethyl) (MOE); [5mC] = 5-methylcytosine

Tested on: IKBKAP pre-mRNA (mt19-21 minigene)
Experiment: Exon 20 inclusion in HEK-293 cells harboring the mt19-21 IKBKAP minigene (RT-PCR)
Format: cell-based, human
Details: HEK-293 with mt19-21 minigene; for % inclusion (exon 20): 0.007 nmol oligonucleotide by electroporation, RT-PCR two days later; for effect on exon 20 inclusion/skipping, in words: 0.007 nmol oligonucleotide
Method: Antisense oligonucleotides were designed targeting a human IKBKAP nucleic acid and were tested for their effects on IKBKAP pre-mRNA in vitro. Together, the overlapping antisense oligonucleotides spanned the entire 74-nucleotide region of the IKBKAP exon 20 sequence, as well as the 100-nucleotide intronic regions immediately upstream and downstream of exon 20. The antisense oligonucleotides are presented in Table 1, and were designed as uniform 2′-O-methoxyethyl ribose (MOE) oligonucleotides with phosphate backbones. Each oligonucleotide is 15 nucleosides in length. All cytosine residues throughout the oligonucleotide are 5-methylcytosines. ‘Start Site’ indicates the 5′-most nucleoside to which the oligonucleotide is targeted in the human gene sequence. “Stop site” indicates the 3′-most nucleoside to which the oligonucleotide is targeted in the human gene sequence. Each oligonucleotide listed in Table 1 is targeted to the human IKBKAP genomic sequence (the complement of GENBANK Accession No NT_008470.16 truncated from nucleotides 13290828 to Ser. No. 13/358,424, designated herein as SEQ ID NO: 1). ISIS 414161 has one mismatch with SEQ ID NO: 1.
Cultured HEK-293 cells harboring the mt19-21 minigene vector construct at a density of 7×10^5 cells per well were transfected using electroporation (Gene Pulsar II apparatus, Bio-Rad) with 0.007 nmol antisense oligonucleotide, as previously described (Hua, Y., et al., 2007. PLoS Biol 5:e73). […] These oligonucleotides served as controls for non-specific effects of uniform MOE oligonucleotides with phosphate backbones. Cells harboring the wt19-21 minigene and the mt19-21 minigene alone were also cultured and were used as controls for exon 20 inclusion levels. Two days later, cDNA synthesized from total RNA extracted from HEK-293 cells was amplified using the forward primer pCDNAF and reverse primer sequence IKAP21R4 to assay the splicing pattern of expressed RNAs by RT-PCR. To calculate exon 20 inclusion levels, the PCR amplicons were labeled with α^32P-dCTP. The PCR products were then separated by native PAGE, followed by phosphorimage analysis on a FUJIFILM FLA-5100 instrument (Fuji Medical Systems USA Inc.). The band intensities were quantified using Multi Gauge software Version 2.3 (FUJIFILM), and values were normalized for the G+C content according to the DNA sequence.
Treatment with antisense oligonucleotides targeting the 3′ and 5′ splice sites caused increased skipping of exon 20.
Additional oligonucleotides were designed targeting the first 30-nucleotide stretch of ISS-40. These oligonucleotides were designed by choosing sequences shifted in one nucleotide increments upstream and downstream (i.e., a “microwalk”) of ISS-40, starting from the +6 position in exon 20. The antisense oligonucleotides are presented in Table 2 and FIG. 4D, and were designed as uniform 2′-O-methoxyethyl ribose (MOE) oligonucleotides with phosphate backbones. Each oligonucleotide is 20 nucleosides in length. All cytosine residues throughout the oligonucleotide are 5-methylcytosines. ‘Start Site’ indicates the 5′-most nucleoside to which the oligonucleotide is targeted in the human gene sequence. “Stop site” indicates the 3′-most nucleoside to which the oligonucleotide is targeted in the human gene sequence. Each oligonucleotide listed in Table 2 is targeted to intron 20 of the human IKBKAP genomic sequence (the complement of GENBANK Accession No NT_008470.16 truncated from nucleotides 13290828 to Ser. No. 13/358,424, designated herein as SEQ ID NO: 1). These oligonucleotides were tested in vitro.
Cultured HEK-293 cells harboring the mt19-21 minigene vector construct at a density of 7×10^5 cells per well were transfected using electroporation (Gene Pulsar II apparatus, Bio-Rad) with 0.007 nmol antisense oligonucleotide, as previously described (Hua, Y., et al., 2007. PLoS Biol 5:e73). […]

Row | Substance | % inclusion (exon 20) (Table 2 (microwalk experiment)) | % inclusion (exon 20) (Table 1) | effect on exon 20 inclusion/skipping, in words
1 | ISIS 421991: uniform 2′-MOE 20-mer, phosphate backbone; TCGCAAACAGTACAATGGCG, SEQ ID NO 60, intron 20 (eTe[5mC]eGe[5mC]eAeAeAe[5mC]eAeGeTeAe[5mC]eAeAeTeGeGe[5mC]eG; splice-switching) | 91% | – | –
2 | ISIS 421993: uniform 2′-MOE 20-mer, phosphate backbone; AGTCGCAAACAGTACAATGG, SEQ ID NO 62, intron 20 (eAeGeTe[5mC]eGe[5mC]eAeAeAe[5mC]eAeGeTeAe[5mC]eAeAeTeGeG; splice-switching) | 87% | – | –
3 | ISIS 421997: uniform 2′-MOE 20-mer, phosphate backbone; AACTAGTCGCAAACAGTACA, SEQ ID NO 66, intron 20 (eAeAe[5mC]eTeAeGeTe[5mC]eGe[5mC]eAeAeAe[5mC]eAeGeTeAe[5mC]eA; splice-switching) | 81% | – | –
4 | ISIS 414142: uniform 2′-MOE 15-mer, phosphate backbone; AACATTTTTAATTAA, SEQ ID NO 21, intron 19 (eAeAe[5mC]eAeTeTeTeTeTeAeAeTeTeAeA; splice-switching) | – | 23% | –
5 | ISIS 414172: uniform 2′-MOE 15-mer, phosphate backbone; ATTGTAATAAAATAC, SEQ ID NO 51, intron 20 (eAeTeTeGeTeAeAeTeAeAeAeAeTeAe[5mC]; splice-switching) | – | 31% | –
6 | ISIS 414160: uniform 2′-MOE 15-mer, phosphate backbone; TACAATGGCGCTTAC, SEQ ID NO 39, intron 20 (eTeAe[5mC]eAeAeTeGeGe[5mC]eGe[5mC]eTeTeAe[5mC]; splice-switching) | – | 14% | –
7 | ISIS 414136: uniform 2′-MOE 15-mer, phosphate backbone; ATAGCCAGGATACAC, SEQ ID NO 15, intron 19 (eAeTeAeGe[5mC]e[5mC]eAeGeGeAeTeAe[5mC]eAe[5mC]; splice-switching) | – | 45% | positive effect on exon 20 inclusion
8 | ISIS 414145: uniform 2′-MOE 15-mer, phosphate backbone; ATAAATTAAAGCAGT, SEQ ID NO 24, intron 19 (eAeTeAeAeAeTeTeAeAeAeGe[5mC]eAeGeT; splice-switching) | – | 3% | –
9 | ISIS 414151: uniform 2′-MOE 15-mer, phosphate backbone; CGATGATGAACAACT, SEQ ID NO 30, exon 20 (e[5mC]eGeAeTeGeAeTeGeAeAe[5mC]eAeAe[5mC]eT; splice-switching) | – | 0% | –
10 | ISIS 414134: uniform 2′-MOE 15-mer, phosphate backbone; TACACCATTTTACCT, SEQ ID NO 13, intron 19 (eTeAe[5mC]eAe[5mC]e[5mC]eAeTeTeTeTeAe[5mC]e[5mC]eT; splice-switching) | – | 25% | –
11 | ISIS 414169: uniform 2′-MOE 15-mer, phosphate backbone; TTATTGTCTTCACAC, SEQ ID NO 48, intron 20 (eTeTeAeTeTeGeTe[5mC]eTeTe[5mC]eAe[5mC]eAe[5mC]; splice-switching) | – | 21% | –
12 | ISIS 414173: uniform 2′-MOE 15-mer, phosphate backbone; TCGAAATTGTAATAA, SEQ ID NO 52, intron 20 (eTe[5mC]eGeAeAeAeTeTeGeTeAeAeTeAeA; splice-switching) | – | 31% | –
13 | ISIS 414164: uniform 2′-MOE 15-mer, phosphate backbone; AGCTAACTAGTCGCA, SEQ ID NO 43, intron 20 (eAeGe[5mC]eTeAeAe[5mC]eTeAeGeTe[5mC]eGe[5mC]eA; splice-switching) | 74% | 78% | markedly increased inclusion of exon 20
14 | ISIS 414162: uniform 2′-MOE 15-mer, phosphate backbone; TCGCAAACAGTACAA, SEQ ID NO 41, intron 20 (eTe[5mC]eGe[5mC]eAeAeAe[5mC]eAeGeTeAe[5mC]eAeA; splice-switching) | 82% | 79% | markedly increased inclusion of exon 20
15 | ISIS 414153: uniform 2′-MOE 15-mer, phosphate backbone; AACCAGGGCTCGATG, SEQ ID NO 32, exon 20 (antisense eAeAe[5mC]e[5mC]eAeGeGeGe[5mC]eTe[5mC]eGeAeTeG) | – | 5% | –
16 | ISIS 414149: uniform 2′-MOE 15-mer, phosphate backbone; CAACTTCTAAGTTTC, SEQ ID NO 28, exon 20 (e[5mC]eAeAe[5mC]eTeTe[5mC]eTeAeAeGeTeTeTe[5mC]; splice-switching) | – | 20% | –
17 | ISIS 414159: uniform 2′-MOE 15-mer, phosphate backbone; TTGTCCAACCACTTC, SEQ ID NO 38, exon 20 (eTeTeGeTe[5mC]e[5mC]eAeAe[5mC]e[5mC]eAe[5mC]eTeTe[5mC]; splice-switching) | – | 2% | –
18 | ISIS 421995: uniform 2′-MOE 20-mer, phosphate backbone; CTAGTCGCAAACAGTACAAT, SEQ ID NO 64, intron 20 (e[5mC]eTeAeGeTe[5mC]eGe[5mC]eAeAeAe[5mC]eAeGeTeAe[5mC]eAeAeT; splice-switching) | 92% | – | –
19 | ISIS 414163: uniform 2′-MOE 15-mer, phosphate backbone; ACTAGTCGCAAACAG, SEQ ID NO 42, intron 20 (eAe[5mC]eTeAeGeTe[5mC]eGe[5mC]eAeAeAe[5mC]eAeG; splice-switching) | 74% | 74% | markedly increased inclusion of exon 20
20 | ISIS 414167: uniform 2′-MOE 15-mer, phosphate backbone; CACACATAAATCACA, SEQ ID NO 46, intron 20 (e[5mC]eAe[5mC]eAe[5mC]eAeTeAeAeAeTe[5mC]eAe[5mC]eA; splice-switching) | – | 13% | significantly decreased the levels of the included RNA isoform
21 | ISIS 414137: uniform 2′-MOE 15-mer, phosphate backbone; TTTAAATAGCCAGGA, SEQ ID NO 16, intron 19 (eTeTeTeAeAeAeTeAeGe[5mC]e[5mC]eAeGeGeA; splice-switching) | – | 52% | positive effect on exon 20 inclusion
22 | ISIS 414133: uniform 2′-MOE 15-mer, phosphate backbone; CATTTTACCTAACTC, SEQ ID NO 12, intron 19 (e[5mC]eAeTeTeTeTeAe[5mC]e[5mC]eTeAeAe[5mC]eTe[5mC]; splice-switching) | – | 25% | –
23 | ISIS 414165: uniform 2′-MOE 15-mer, phosphate backbone; TCACAAGCTAACTAG, SEQ ID NO 44, intron 20 (eTe[5mC]eAe[5mC]eAeAeGe[5mC]eTeAeAe[5mC]eTeAeG; splice-switching) | 64% | 66% | markedly increased inclusion of exon 20
24 | ISIS 414132: uniform 2′-MOE 15-mer, phosphate backbone; TACCTAACTCTTCAC, SEQ ID NO 11, intron 19 (eTeAe[5mC]e[5mC]eTeAeAe[5mC]eTe[5mC]eTeTe[5mC]eAe[5mC]; splice-switching) | – | 19% | –
